The subject of the experiment is beet armyworm (Spodoptera exigua). Briefly: Test I: control of beet armyworm, spray on tomato plants, excised leaves, % mortality and % feeding at 72 hours. The class given is in vivo. On the procedure: For evaluating control of beet armyworm (Spodoptera exigua), methomyl was in the liquid formulation as Lannate® LV (29% of active ingredient). Compound 1 was in a water dispersible granules (WDG) formulation with 35% active ingredient. The test compounds were dissolved in water. Enough water was added to make 100 ppm of active ingredient for each compound. Serial dilutions were made to obtain the appropriate concentrations. To obtain the desired mixture concentrations of each compound, twice the desired concentration of each of the two mixture partner compounds were mixed together in equal volumes.
The diluted solutions of the test compounds were sprayed to run-off on three-week-old tomato plants. The plants were placed on a rotating turntable sprayer (10 rpm). Test solutions were applied using a flat fan air-assisted nozzle (Spraying Systems 122440) at 10 psi (69 kPa). After each treated plant had dried, leaves were excised from the treated plant. The leaves were cut into pieces, which were placed singly into 5.5 cm-by-3.5 cm cells of a sixteen-cell plastic tray. Each cell contained a 2.5-cm square of moistened chromatography paper to prevent desiccation. One insect was placed in each cell. There two trays per treatment. […]

For `CNC(=O)c1cc(Cl)cc(C)c1NC(=O)c1cc(Br)nn1-c1ncccc1Cl` [Compound 1, 3-bromo-N-[4-chloro-2-methyl-6-[(methylamino)carbonyl]phenyl]-1-(3-chloro-2-pyridinyl)-1H-pyrazole-5-carboxamide], the “% feeding” value (Compound 1 0.022 ppm) is given as 9%; the “% feeding” value (Compound 1 0.041 ppm) was found to be 6%; the “% feeding” value (Compound 1 0.163 ppm) is listed as 2%; the “% feeding” value (Compound 1 0.209 ppm) is 2%; the “% feeding” value (Compound 1 0.30 ppm) turned out to be 1%; the “% feeding” value (Compound 1 0.60 ppm) was 1%. The mortality at 0.022 ppm (Spodoptera exigua, Compound 1 0.022 ppm, read-out: % mortality (observed)) worked out at 13%. Further, the mortality at 0.041 ppm (Spodoptera exigua, Compound 1 0.041 ppm, read-out: % mortality (observed)) was found to be 44%. Further, where the note is “Spodoptera exigua, Compound 1 0.076 ppm, read-out: % mortality (observed)”, the mortality at […] was determined as 25%. Where the note is “Spodoptera exigua, Compound 1 0.163 ppm, read-out: % mortality (observed)”, the mortality at 0.163 ppm turned out to be 35%. Moreover, the mortality at 0.209 ppm (Spodoptera exigua, Compound 1 0.209 ppm, read-out: % mortality (observed)) amounted to 47%. Besides, for the setting “Spodoptera exigua, Compound 1 0.30 ppm, read-out: % mortality (observed)”, the mortality at 0.3 ppm was determined as 59%. The mortality at 0.6 ppm (Spodoptera exigua, Compound 1 0.60 ppm, read-out: % mortality (observed)) came out at 75%.

In general, mortality refers to the percentage killed.

(Values after patent publication US8937089B2, “Synergistic mixtures of anthranilamide invertebrate pest control agents” (priority 2004, dated 2015).)
